# According to article PMC11054282, “Structural Investigations on 2-Amidobenzimidazole Derivatives as New Inhibitors of Protein Kinase CK1 Delta” (Pharmaceuticals, 2024):
# Several values for one entry are separate records, joined by “and”; a condition that tells them apart may be missing. Equal entries are not always repeated.
# Key:
# truncated CK1δ = biological target: T1, truncated CK1δ (Homo sapiens, UniProt P48730); test: CK1δ luminescent kinase assay (Kinase Glo kit); type: biochemical; details: for IC50: truncated recombinant human CK1δ (aa 1-294), casein substrate, 2 μM ATP, mean ± SE of three independent experiments in duplicate
# T1 construct: truncated CK1δ, recombinant human, GST-tagged, aa 1-294, Merck Millipore; GST; purchased Merck Millipore, Merck KGaA, Darmstadt, Germany
# T1 sequence (P48730 1-294): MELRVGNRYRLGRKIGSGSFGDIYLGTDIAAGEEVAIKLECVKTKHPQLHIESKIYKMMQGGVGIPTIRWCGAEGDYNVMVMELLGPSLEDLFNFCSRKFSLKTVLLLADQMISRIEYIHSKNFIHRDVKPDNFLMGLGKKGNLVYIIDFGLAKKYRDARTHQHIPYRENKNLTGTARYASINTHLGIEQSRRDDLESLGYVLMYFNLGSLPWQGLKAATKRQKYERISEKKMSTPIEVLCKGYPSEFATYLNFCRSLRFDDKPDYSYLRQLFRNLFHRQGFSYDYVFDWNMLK
# Method: The newly synthesized derivatives 1–32 were tested on truncated CK1δ using the luminescent kinase assay Kinase Glo® KIT (Promega Italy S.r.l., Milan, Italy), and the results are reported in Table 1 and Table 2. Derivatives were tested at a fixed dose of 40 μM; then, those showing a residual kinase activity percentage lower than 50% were tested at 10 μM.
# The inhibitory activity of synthesized compounds on CK1δ has been carried out following a procedure for a luminescence-based assay (KinaseGlo® kit, Promega Italy Srl, Milan, Italy) already reported in the literature. Luminescent assays were performed in white 96-well plates in a 40 μL final volume. The buffer used is a milliq water solution of 50 mM HEPES (pH 7.5), 1 mM EDTA, 1 mM EGTA, and 15 mM MgCl2. In a typical assay, 10 μL of inhibitor solution (desired concentrations were obtained by diluting in buffer a starting 10 mM solution in DMSO) and 10 μL of enzyme solution (truncated CK1δ, recombinant human, GST-tagged, aa 1-294, Merck Millipore, Merck KGaA, Darmstadt, Germany) were added to the well, followed by 20 μL of assay buffer containing casein substrate (casein solution from bovine milk, 5% in water, Sigma-Aldrich, Merck KGaA, Darmstadt, Germany) and ATP, at a final concentration of 0.05% and 2 μM, respectively. The final enzyme concentration was 6.5 nM. […] After 60 min of incubation at 30 °C, the enzymatic reactions were stopped with the addition of 40 μL of KinaseGlo reagent (Promega Italy Srl, Milan, Italy). The luminescence signal (relative light unit, RLU) was recorded after 10 min at 25 °C using a Tecan Infinite M100. […] IC50 values were evaluated using ten different inhibitor concentrations ranging from 100 to 0.026 μM. Data were analyzed using Excel and GraphPad Prism software (version 8.0).
# CK1δ = details: compound IV (SR 2890), Figure 1; read-out: CK1δ IC50; cited from earlier work
Compound,IC50 (truncated CK1δ),melting point,fold less potent than the regioisomer 18 (CK1δ) (truncated CK1δ; 19 (4-NO2) versus 18 (5-NO2)) [fold],IC50 (CK1δ) [µM]
"O=C(Cn1ccc(C(=O)Nc2nc3ccccc3[nH]2)n1)c1ccccc1 [Compound 1, N-(1H-Benzimidazol-2yl)-1-(2-oxo-2-phenylethyl)-1H-pyrazole-3-carboxamide]",> 40 µM,220 to 221 °C,–,–
"Cc1ccc2[nH]c(NC(=O)c3ccn(CC(=O)c4ccccc4)n3)nc2c1 [Compound 2, N-(5(6)-Methyl-1H-benzimidazol-2yl)-1-(2-oxo-2-phenylethyl)-1H-pyrazole-3-carboxamide]",< 15 µM and 14.6 µM,199 to 200 °C,–,–
"O=C(Cn1ccc(C(=O)Nc2nc3cc(Cl)ccc3[nH]2)n1)c1ccccc1 [Compound 3, N-(5(6)-Chloro-1H-benzimidazol-2yl)-1-(2-oxo-2-phenylethyl)-1H-pyrazole-3-carboxamide]",< 15 µM and 1.8 µM,200 to 203 °C,–,–
"COc1ccccc1C(=O)Cn1ccc(C(=O)Nc2nc3ccccc3[nH]2)n1 [Compound 4, N-(1H-Benzimidazol-2yl)-1-(2-(2-methoxyphenyl)-2-oxoethyl)-1H-pyrazole-3-carboxamide]",> 40 µM,168 to 170 °C,–,–
"COc1ccccc1C(=O)Cn1ccc(C(=O)Nc2nc3cc(C)ccc3[nH]2)n1 [Compound 5, N-(5(6)-Methyl-1H-benzimidazol-2yl)-1-(2-(2-methoxyphenyl)-2-oxoethyl)-1H-pyrazole-3-carboxamide]",> 40 µM,201 to 203 °C,–,–
"COc1ccccc1C(=O)Cn1ccc(C(=O)Nc2nc3cc(Cl)ccc3[nH]2)n1 [Compound 6, N-(5(6)-Chloro-1H-benzimidazol-2yl)-1-(2-(2-methoxyphenyl)-2-oxoethyl)-1H-pyrazole-3-carboxamide]",< 15 µM and 13.2 µM,219 to 221 °C,–,–
"O=C(Nc1nc2ccccc2[nH]1)c1cc[nH]n1 [Compound 7, N-(1H-Benzimidazol-2-yl)-1H-pyrazole-3(5)-carboxamide]",> 40 µM,> 300 °C,–,–
"Cc1ccc2[nH]c(NC(=O)c3cc[nH]n3)nc2c1 [Compound 8, N-(5(6)-Methyl-1H-benzimidazol-2-yl)-1H-pyrazole-3(5)-carboxamide]",> 40 µM,> 300 °C,–,–
"O=C(Nc1nc2cc(Cl)ccc2[nH]1)c1cc[nH]n1 [Compound 9, N-(5(6)-Chloro-1H-benzimidazol-2-yl)-1H-pyrazole-3(5)-carboxamide]",> 40 µM,> 300 °C,–,–
"O=C(Nc1nc2cc(C(F)(F)F)ccc2[nH]1)c1cc[nH]n1 [Compound 10, 1H-Pyrazole-N-(5(6)-trifluoromethyl-1H-benzimidazol-2-yl)-3(5)-carboxamide]",> 40 µM,> 300 °C,–,–
"COc1ccc2[nH]c(NC(=O)c3cc[nH]n3)nc2c1 [Compound 11, N-(5(6)-Methoxy-1H-benzimidazol-2-yl)-1H-pyrazole-3(5)-carboxamide]",> 40 µM,> 300 °C,–,–
"O=C(Nc1nc2cc([N+](=O)[O-])ccc2[nH]1)c1cc[nH]n1 [Compound 12, N-(5(6)-Nitro-1H-benzimidazol-2-yl)-1H-pyrazole-3(5)-carboxamide]",> 40 µM,> 300 °C,–,–
"O=C(Cc1cc[nH]n1)Nc1nc2ccccc2[nH]1 [Compound 13, N-(1H-benzimidazol-2-yl)-2-(1H-pyrazol-3(5)-yl)acetamide]",4.21 ± 1.92 µM,295 to 297 °C,–,–
"Cc1ccc2[nH]c(NC(=O)Cc3cc[nH]n3)nc2c1 [Compound 14, N-(5(6)-Methyl-1H-benzimidazol-2-yl)-2-(1H-pyrazol-3(5)-yl)acetamide]",1.64 ± 0.31 µM,257 °C (dec.),–,–
"O=C(Cc1cc[nH]n1)Nc1nc2cc(Cl)ccc2[nH]1 [Compound 15, N-(5(6)-Cloro-1H-benzimidazol-2-yl)-2-(1H-pyrazol-3(5)-yl)acetamide]",0.485 ± 0.31 µM,286 to 288 °C,–,–
"O=C(Cc1cc[nH]n1)Nc1nc2cc(C(F)(F)F)ccc2[nH]1 [Compound 16, 2-(1H-Pyrazol-3(5)-yl)-N-(5(6)-trifluoromethyl-1H-benzimidazol-2-yl)acetamide]",1.74 ± 0.32 µM,275 to 277 °C,–,–
"COc1ccc2[nH]c(NC(=O)Cc3cc[nH]n3)nc2c1 [Compound 17, N-(5(6)-Methoxy-1H-benzimidazol-2-yl)-2-(1H-pyrazol-3(5)-yl)acetamide]",6.27 ± 0.95 µM,239 to 240 °C,–,–

Compound,IC50 (truncated CK1δ),melting point,fold less potent than the regioisomer 18 (CK1δ) (truncated CK1δ; 19 (4-NO2) versus 18 (5-NO2)) [fold],IC50 (CK1δ) [µM]
"O=C(Cc1cc[nH]n1)Nc1nc2cc([N+](=O)[O-])ccc2[nH]1 [Compound 18, N-(5(6)-Nitro-1H-benzimidazol-2-yl)(1H-pyrazol-3(5)-yl)-2-acetamide]",0.12 ± 0.083 µM,272 to 274 °C,–,–
"O=C(Cc1cc[nH]n1)Nc1nc2c([N+](=O)[O-])cccc2[nH]1 [Compound 19, N-(4(7)-Nitro-1H-benzimidazol-2-yl)(1H-pyrazol-3(5)-yl)-2-acetamide]",1.22 ± 0.23 µM,280 to 282 °C,10,–
"CC(C)(C)c1ccc2[nH]c(NC(=O)Cc3cc[nH]n3)nc2c1 [Compound 20, N-(5(6)-terButyl-1H-benzimidazol-2-yl)(1H-pyrazol-3(5)-yl)-2-acetamide]",1 ± 0.18 µM,–,–,–
"O=C(Cc1cc[nH]n1)Nc1nc2cc(OC(F)(F)F)ccc2[nH]1 [Compound 21, 2-(1H-Pyrazol-3(5)-yl)-N-(5(6)-trifluoromethoxy-1H-benzimidazol-2-yl)acetamide]",5.99 ± 0.87 µM,270 to 274 °C,–,–
"O=C(Cc1cc[nH]n1)Nc1nc2cc(Cl)c(Cl)cc2[nH]1 [Compound 22, N-(5,6-Dichloro-1H-benzimidazol-2-yl)-2-(1H-pyrazol-3(5)-yl)acetamide]",0.98 ± 0.35 µM,> 300 °C,–,–
"N#Cc1ccc2[nH]c(NC(=O)Cc3cc[nH]n3)nc2c1 [Compound 23, N-(5(6)-Cyano-1H-benzimidazol-2-yl)(1H-pyrazol-(3)5-yl)-2-acetamide]",0.0986 ± 0.0394 µM,267 to 268 °C,–,–
NC(=O)c1ccc2[nH]c(NC(=O)Cc3cc[nH]n3)nc2c1 [Compound 24],2.53 ± 0.38 µM,290 to 292 °C,–,–
"NS(=O)(=O)c1ccc2[nH]c(NC(=O)Cc3cc[nH]n3)nc2c1 [Compound 25, 2-(1H-Pyrazol-3(5)-yl)-N-(5(6)-sulfamoyl-1H-benzimidazol-2-yl)acetamide]",> 40 µM,285 to 287 °C,–,–
CNS(=O)(=O)c1ccc2[nH]c(NC(=O)Cc3cc[nH]n3)nc2c1 [Compound 26],< 15 µM and 10.7 µM,238 to 240 °C,–,–
"CC(=O)Nc1ccc2[nH]c(NC(=O)Cc3cc[nH]n3)nc2c1 [Compound 27, N-(5(6)-Acetamido-1H-benzimidazol-2-yl)(1H-pyrazol-3(5)-yl)acetamide]",> 40 µM,–,–,–
"O=C(Cc1cc[nH]n1)Nc1nc2cc(NC(=O)c3ccccc3)ccc2[nH]1 [Compound 28, N-(2-(2-(1H-Pyrazol-3-yl)acetamido)-1H-benzimidazol-3(5)-yl)benzamide]",> 40 µM,292 to 293 °C,–,–
"O=C(Cc1cc[nH]n1)Nc1nc2c(NC(=O)c3ccccc3)cccc2[nH]1 [Compound 29, N-(2-(2-(1H-Pyrazol-3-yl)acetamido)-1H-benzimidazol-4(7)-yl)benzamide]",> 40 µM,280 °C (dec.),–,–
"O=C(Cc1cc[nH]n1)Nc1nc2cc(-n3cncn3)ccc2[nH]1 [Compound 30, N-(5(6)-(1H-1,2,4-triazol-1-yl)-1H-benzimidazol-2-yl)(1H-pyrazol-3(5)-yl)acetamide]",< 15 µM and 2.59 µM,269 to 271 °C,–,–
"O=C(Cc1cc[nH]n1)Nc1nc2cc(-c3nnn[nH]3)ccc2[nH]1 [Compound 31, N-(5(6)-(1H-tetrazol-5-yl)-1H-benzimidazol-2-yl)(1H-pyrazol-3(5)-yl)acetamide]",< 15 µM and 1.54 µM,> 300 °C,–,–
"Cn1c(NC(=O)Cc2cc[nH]n2)nc2ccc(Cl)cc21 [Compound 32, N-(6-Chloro-1-methyl-benzimidazol-2-yl)(1H-pyrazol-3(5)-yl)acetamide]",20.1 ± 7.3 µM,–,–,–
Fc1cccc(-n2cnc3c(NCc4nc5ccc(Cl)cc5[nH]4)nc(N4CCNCC4)nc32)c1 [IV],–,–,–,0.005
